Earlier results on three compounds are cited in patent publication US10137126B2, “Method of preparing very slightly soluble drug with solid dosage form” (YUNG SHIN PHARM. IND. CO., LTD., priority 2015, dated 2018).

On to `CCC(C)n1ncn(-c2ccc(N3CCN(c4ccc(OCC5COC(Cn6cncn6)(c6ccc(Cl)cc6Cl)O5)cc4)CC3)cc2)c1=O` (stereo not drawn) [Itraconazole], for which the aqueous solubility is recorded as 1 g/1,000 ml.

As to `C[C@@H](c1ncncc1F)[C@](O)(Cn1cncn1)c1ccc(F)cc1F` [Voriconazole], the aqueous solubility is reported as 1 g/10,000 ml. `CN1CC(=O)N2[C@H](c3ccc4c(c3)OCO4)c3[nH]c4ccccc4c3C[C@@H]2C1=O` [Tadalafil]: the aqueous solubility was 2 g/1,000,000 ml.
